Test results published in patent US20260250289A1, “BICYCLIC HETEROCYCLES AND THEIR USE AS WRN INHIBITORS” (Novartis AG, priority 2022, published 2026).

What was measured:
[1] = tested on: DLD1-WRN-KO cells; assay: Proliferation assay DLD1-WRN-KO (CellTiterGlo, off-target effects); format: cell-based; settings: 96 hours, geometric mean of at least 2
In short: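 DLD1 cells with CRISPR knockout of WRN were exposed overnight-seeded to eight 3-fold compound dilutions (0.1% DMSO) for 96 h at 37 °C. Viability was read as ATP by CellTiterGlo luminescence against a day-0 plate, giving GI50 and residual viability at top concentration.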

[2] = tested on: SW48 cells; assay: Proliferation assay SW48 (CellTiterGlo); format: cell-based; settings: Homo sapiens, SW48, 96 h, SW48 colon carcinoma cells, 96 hours, CellTiterGlo; geometric mean of at least 2; read-out: Proliferation Assay SW48 GI50
In short: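 Read-out is CellTiterGlo luminescence after 96 hours of compound exposure, with % growth calculated against day-0 and vehicle-treated ATP levels. SW48 seeded at 2,000 cells/well, dosed next day with eight 3-fold serial dilutions, 0.1% DMSO. GI50 reported as geometric mean, at least 2 replicates.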

[3] = biological target: T1, WRN helicase (aa N517-P1238) (Homo sapiens, UniProt Q14191); assay: WRN ATPase assay (DNA dependent ATP hydrolysis, ADP-Glo); format: biochemical; settings: 3 hours pre-incubation, 300 micromolar ATP, FLAP26 DNA; geometric mean of at least 2
T1 construct: The core helicase motif of the WRN protein (aa N517-P1238) was produced for this assay; His (N); ZZ (N); 3C protease cleavage site (N); made in house; host or cells: Sf21 insect cells (baculovirus; virus and BIICs made in SF9)
In short: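 DNA-dependent ATP hydrolysis detected as ADP by ADP-Glo luminescence, using 300 μM ATP, 0.2 nM FLAP26 substrate and 10 nM WRN aa N517-P1238 (Tris pH 7.5 buffer, 2 mM MgCl2, 50 mM NaCl). IC50s fitted from normalized duplicate half-log dilutions; reported as geometric means of at least 2 replicates.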

T1 sequence (Q14191 517-1238): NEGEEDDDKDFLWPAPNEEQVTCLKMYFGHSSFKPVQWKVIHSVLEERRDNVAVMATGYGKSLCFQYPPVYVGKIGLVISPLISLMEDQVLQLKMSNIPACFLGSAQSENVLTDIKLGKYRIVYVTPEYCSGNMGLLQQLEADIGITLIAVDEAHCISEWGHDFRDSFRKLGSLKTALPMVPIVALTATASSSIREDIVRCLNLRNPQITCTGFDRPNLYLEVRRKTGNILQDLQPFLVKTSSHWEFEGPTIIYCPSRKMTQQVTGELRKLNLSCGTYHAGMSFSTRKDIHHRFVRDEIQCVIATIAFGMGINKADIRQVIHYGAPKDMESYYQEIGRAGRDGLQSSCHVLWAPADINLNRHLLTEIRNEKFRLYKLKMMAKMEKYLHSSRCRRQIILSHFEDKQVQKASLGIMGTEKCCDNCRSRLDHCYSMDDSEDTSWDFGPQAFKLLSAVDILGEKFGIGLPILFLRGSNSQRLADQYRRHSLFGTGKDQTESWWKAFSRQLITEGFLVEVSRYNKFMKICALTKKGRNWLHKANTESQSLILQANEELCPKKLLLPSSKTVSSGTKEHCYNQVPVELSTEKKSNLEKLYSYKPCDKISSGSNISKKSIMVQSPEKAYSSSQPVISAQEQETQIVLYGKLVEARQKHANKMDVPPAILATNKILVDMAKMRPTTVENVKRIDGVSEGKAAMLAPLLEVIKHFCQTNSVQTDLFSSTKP

Row | SMILES | GI50 [1] [µM] | GI50 [2] [µM] | IC50 [3] [µM]
1 | CC(=O)N1CCN(c2c(C)n(CC(=O)Nc3ccc(C(F)(F)F)cc3)c3nc(C4=CCC(N5CC(F)(F)C5)CC4)nn3c2=O)CC1 (stereo not drawn) [Example 114, 2-(6-(4-acetylpiperazin-1-yl)-2-(4-(3,3-difluoroazetidin-1-yl)cyclohex-1-en-1-yl)-5-methyl-7-oxo-[1,2,4]triazolo[1,5-a]pyrimidin-4(7H)-yl)-N-(4-(trifluoromethyl)phenyl) acetamide] | > 10 | 2 | 0.4
2 | Cc1c(N2CCN(C(=O)c3ccncc3O)CC2)c(=O)n2nc(C3=CCOCC3)nc2n1CC(=O)Nc1ccc(C(F)(F)F)cc1 [Example 36, 2-(2-(3,6-dihydro-2H-pyran-4-yl)-6-(4-(3-hydroxyisonicotinoyl)piperazin-1-yl)-5-methyl-7-oxo-[1,2,4]triazolo[1,5-a]pyrimidin-4(7H)-yl)-N-(4-(trifluoromethyl)phenyl)acetamide] | > 10 | > 10 | 0.1
3 | CC(=O)N1CCN(c2c(C)n(CC(=O)Nc3ccc(Cl)c(Cl)c3)c3nc(-c4ccc(CN(C)C(=O)OC5CC/C=C/CCC5)cc4)nn3c2=O)CC1 (stereo not drawn) [Example 102, (E)-cyclooct-4-en-1-yl (4-(6-(4-acetylpiperazin-1-yl)-4-(2-((3,4-dichlorophenyl)amino)-2-oxoethyl)-5-methyl-7-oxo-4,7-dihydro-[1,2,4]triazolo[1,5-a]pyrimidin-2-yl)benzyl)(methyl)carbamate] | 5 | 7 | > 3
4 | CC(=O)N1CCN(c2c(C)n(CC(=O)Nc3ccc(C(F)(F)F)cc3)c3nc(C4=CCCCO4)nn3c2=O)CC1 [Example 109, 2-(6-(4-acetylpiperazin-1-yl)-2-(3,4-dihydro-2H-pyran-6-yl)-5-methyl-7-oxo-[1,2,4]triazolo[1,5-a]pyrimidin-4(7H)-yl)-N-(4-(trifluoromethyl)phenyl)acetamide] | > 10 | 4 | 0.2
5 | CC(=O)N1CCN(c2c(C)n(CC(=O)Nc3cc(C)c(C(F)(F)F)cc3Cl)c3nc(C4=CCOCC4)nn3c2=O)CC1 [Example 89, 2-(6-(4-acetylpiperazin-1-yl)-2-(3,6-dihydro-2H-pyran-4-yl)-5-methyl-7-oxo-[1,2,4]triazolo[1,5-a]pyrimidin-4(7H)-yl)-N-(2-chloro-5-methyl-4-(trifluoromethyl)phenyl)acetamide] | > 10 | 3 | 0.6
6 | CC(=O)N1CCN(c2c(C)n(CC(=O)Nc3ccc(Cl)cc3)c3nc(C4=CCCCO4)nn3c2=O)CC1 [Example 79, 2-(6-(4-acetylpiperazin-1-yl)-2-(3,4-dihydro-2H-pyran-6-yl)-5-methyl-7-oxo-[1,2,4]triazolo[1,5-a]pyrimidin-4(7H)-yl)-N-(4-chlorophenyl)acetamide] | > 10 | 5 | 0.2
7 | Cc1cc(C(=O)N2CCN(c3c(C)n(CC(=O)Nc4ccc(C(F)(F)F)cc4)c4nc(C5=CCOCC5)nn4c3=O)CC2)c(O)cn1 [Example 26, 2-(2-(3,6-dihydro-2H-pyran-4-yl)-6-(4-(5-hydroxy-2-methylisonicotinoyl)piperazin-1-yl)-5-methyl-7-oxo-[1,2,4]triazolo[1,5-a]pyrimidin-4(7H)-yl)-N-(4-(trifluoromethyl)phenyl)acetamide] | > 10 | > 10 | 0.3
8 | CC(=O)N1CCN(c2c(C)n(CC(=O)Nc3cc(Cl)c(C)cc3Cl)c3nc(C4=CCOCC4)nn3c2=O)CC1 [Example 100, 2-(6-(4-acetylpiperazin-1-yl)-2-(3,6-dihydro-2H-pyran-4-yl)-5-methyl-7-oxo-[1,2,4]triazolo[1,5-a]pyrimidin-4(7H)-yl)-N-(2,5-dichloro-4-methylphenyl)acetamide] | > 10 | 4 | 2
